Among the data in ChEMBL document CHEMBL3352524, “Identification of arylsulfonamides as ExoU inhibitors” (Bioorg Med Chem Lett, 2014) are viability and Activity values, retold here.

Each structure is given as a SMILES string.

Data set [1] is described as follows: Toxicity against Saccharomyces cerevisiae 14328 assessed as cell viability at 5 uM after 48 hrs. The class given is organism-based. The following applies: Saccharomyces cerevisiae 14328 cells, read-out: Activity.
The subject of a further data set is Pseudomonas aeruginosa. Briefly: Inhibition of Pseudomonas aeruginosa ExoU expressed in Saccharomyces cerevisiae 14328 harboring pdr1/pdr3 genes assessed as cell death measured as yeast growth recovery at 5 uM after 48 hrs by copper-inducible promoter CUP1 assay. Also noted: scale not given: the % may be the effect or the level left.
Data set [2] in a line: Cytotoxicity against HEK293T cells assessed as cell viability at 5 uM after 48 hrs. The following applies: human, read-out: Activity. The class given is cell-based, HEK-293T.

On to `Cc1cc(C)c(S(=O)(=O)NCCOc2ccccc2)c(C)c1`, for which the viability at 48 h, 5 µM in data set [1] was above 90%. The Activity in the data set on Pseudomonas aeruginosa turned out to be 23.7%.

Turning to `O=S(=O)(Nc1cccc2ccccc12)c1ccc(C(F)(F)F)cc1`, the viability at 48 h, 5 µM in data set [2] and in data set [1] was above 90% in each case. For the same compound, the Activity in the data set on Pseudomonas aeruginosa is 45.4%.

In the case of `CC(C)(C)c1ccc(S(=O)(=O)Nc2ccc3c(c2)OCCO3)cc1`, the viability at 48 h, 5 µM in data set [2] was 87.7%; in data set [1], above 90%. For the same compound, in the data set with Pseudomonas aeruginosa, the Activity was 52.2%.

As to `Cc1cc(C)c(NS(=O)(=O)c2ccc3c(c2)OCCO3)c(C)c1`, the viability at 48 h, 5 µM in data set [1] is 89.1%. The Activity in the data set on Pseudomonas aeruginosa amounted to 21%.

With `O=S(=O)(Nc1ccc2c(c1)OCCO2)c1ccc(C(F)(F)F)cc1`, in data set [1], the viability at 48 h, 5 µM is above 90%. Moreover, the Activity with Pseudomonas aeruginosa was found to be 27.6%.

`COc1ccc(NS(=O)(=O)c2c(C)cc(C)cc2C)cc1OC`: the viability at 48 h, 5 µM in data set [1] is above 90%. Further, the Activity with Pseudomonas aeruginosa came to 18.5%.

As to `CCCCCc1ccc(S(=O)(=O)Nc2ccc3c(c2)OCCO3)cc1`, in data set [1], the viability at 48 h, 5 µM was above 90%. Also, in the data set with Pseudomonas aeruginosa, the Activity is 9%.

For `NC(=O)c1cccc2c1-c1ccccc1C2`, the viability at 48 h, 5 µM in data set [2] and in data set [1] was above 90% in each case. Moreover, the Activity in the data set with Pseudomonas aeruginosa was found to be 84.7%.

For the compound `CCCc1ccc(OCCNS(=O)(=O)c2c(C)cc(C)cc2C)cc1`, the viability at 48 h, 5 µM in data set [2] is 72.3%; in data set [1], 85.2%. Moreover, in the data set with Pseudomonas aeruginosa, the Activity was determined as 30.6%.

On to `O=S(=O)(Nc1ccc2c(c1)OCCO2)c1ccc2ccccc2c1`, for which the viability at 48 h, 5 µM was 87.5% in data set [2] and above 90% in data set [1]. Moreover, the Activity in the data set on Pseudomonas aeruginosa came to 36.6%.

For `Cc1cc(C)c(S(=O)(=O)Nc2ccc3c(c2)OCCO3)c(C)c1`, the viability at 48 h, 5 µM in data set [2] and in data set [1] was above 90% each time. Moreover, in the data set with Pseudomonas aeruginosa, the Activity stood at 60.2%.
